In publication PMC4014698 (Pharmaceuticals, 2014):
≈ marks a conversion by molar mass, not a printed value. Non-standard residues stand in square brackets, D forms with d. Residues, ends and D or L forms follow the SMILES beside them.

Assays:
[1] = test system: Acinetobacter baumannii (11 different isolates); assay type: cell-based; settings: geometric mean of the MIC values from 11 different isolates of A. baumannii; Table 3A
Source text: (§1) All the A. baumannii strains used in this study were (1) obtained from the collection of Dr. Anthony A. Campagnari at the University of Buffalo and originally isolated from different patients and organs/tissues (strain 649, blood; strain 689, groin; strain 759, gluteus; strain 821, urine; strain 884, axilla; strain 899, perineum; strain 964, throat; strain 985, pleural fluid and strain 1012, sputum); (2) were purchased from the American Type Culture Collection (ATCC, Manassas, VA, USA) (strain ATCC 17978, fatal meningitis; and strain ATCC 19606, urine).
(§2) The minimal inhibitory concentration (MIC) is defined as the lowest peptide concentration that inhibited bacterial growth. MICs were measured by a standard microtiter dilution method in Mueller Hinton (MH) medium. Briefly, cells were grown overnight at 37 °C in MH broth and were diluted in the same medium. Serial dilutions of the peptides were added to the microtiter plates in a volume of 50 µL, followed by the addition of 50 µL of bacteria to give a final inoculum of 5 × 10^5 colony-forming units (CFU)/mL. The plates were incubated at 37 °C for 24 h, and the MICs were determined.
Antibacterial activities against six strains of P. aeruginosa and eleven strains of A. baumannii are compared in Table 3. Geometric mean of MIC values was calculated to provide an overall view of antimicrobial activity of different analogs. It is clear that our peptides were effective in killing the microorganisms tested. Compared to a dramatic reduction in hemolytic activity, antibacterial activity of D-piscidin 1 and D-dermaseptin S4 analogs against eleven strains of A. baumannii maintained the same level (within 2-fold) upon the substitution of “specificity determinant(s)” (Table 3).

[2] = test system: P. aeruginosa strain CP204; settings: source cystic fibrosis patient; Mueller-Hinton medium, 37 °C, 24 h, 5 × 10^5 CFU/mL; three sets of determinations
Source text: (§3) P. aeruginosa strains used are as follows: strain PAO1 was isolated from a human wound in 1955 in Australia; strain WR5 was isolated from a burn patient at Walter Reed Army Hospital, Washington, DC, USA, in 1976 and is a natural toxA^− mutant, but is virulent in experimental mouse models; strain PAK was originally isolated at Memorial University, St. John’s, Newfoundland, Canada, and is widely used in the analysis of pili; strain PA14 was originally isolated as a clinical isolate in 1995 at the Massachusetts General Hospital, Boston, MA, USA and is virulent in a variety of plant and animal models of infection; strain M2 was originally isolated in 1975 from the gastrointestinal tract of a healthy CF1 mouse, University of Cincinnati College of Medicine, and Shriners Burns Institute, Cincinnati, OH, USA and is virulent in a burn mouse model of P. aeruginosa infection; and strain CP204 was isolated from a cystic fibrosis patient in 1989 at the National Jewish Medical and Research Center, Denver, CO, USA. All strains have been maintained at −80 °C in the laboratory of Michael Vasil, University of Colorado, School of Medicine.
(§4) The minimal inhibitory concentration (MIC) is defined as the lowest peptide concentration that inhibited bacterial growth. MICs were measured by a standard microtiter dilution method in Mueller Hinton (MH) medium. Briefly, cells were grown overnight at 37 °C in MH broth and were diluted in the same medium. […] The plates were incubated at 37 °C for 24 h, and the MICs were determined.

[3] = test system: P. aeruginosa strain PAO1; settings: source human wound; Mueller-Hinton medium, 37 °C, 24 h, 5 × 10^5 CFU/mL; three sets of determinations
Source text: as §3, §4

P. aeruginosa strain WR5 = settings: source burn patient; Mueller-Hinton medium, 37 °C, 24 h, 5 × 10^5 CFU/mL; three sets of determinations
Source text: as §3, §4

P. aeruginosa strain PAK = settings: Mueller-Hinton medium, 37 °C, 24 h, 5 × 10^5 CFU/mL; three sets of determinations
Source text: as §3, §4

[4] = test system: P. aeruginosa strain PA14; settings: Mueller-Hinton medium, 37 °C, 24 h, 5 × 10^5 CFU/mL; three sets of determinations
Source text: as §3, §4

P. aeruginosa strain M2 = settings: source burn mouse model; Mueller-Hinton medium, 37 °C, 24 h, 5 × 10^5 CFU/mL; three sets of determinations
Source text: as §3, §4

A. baumannii strain 964 = assay type: cell-based, Acinetobacter baumannii; settings: source throat; Mueller-Hinton medium, 37 °C, 24 h, 5 × 10^5 CFU/mL; three sets of determinations
Source text: as §1, §2

[5] = test system: A. baumannii strain ATCC 17978; assay type: cell-based, Acinetobacter baumannii; settings: ATCC 17978, 24 h
Source text: as §1, §2

A. baumannii strain 689 = assay type: cell-based, Acinetobacter baumannii; settings: source groin; Mueller-Hinton medium, 37 °C, 24 h, 5 × 10^5 CFU/mL; three sets of determinations
Source text: as §1, §2

A. baumannii strain 985 = assay type: cell-based, Acinetobacter baumannii; settings: source pleural fluid; Mueller-Hinton medium, 37 °C, 24 h, 5 × 10^5 CFU/mL; three sets of determinations
Source text: as §1, §2

A. baumannii strain 899 = assay type: cell-based, Acinetobacter baumannii; settings: source perineum; Mueller-Hinton medium, 37 °C, 24 h, 5 × 10^5 CFU/mL; three sets of determinations
Source text: as §1, §2

A. baumannii strain 1012 = assay type: cell-based, Acinetobacter baumannii; settings: source sputum; Mueller-Hinton medium, 37 °C, 24 h, 5 × 10^5 CFU/mL; three sets of determinations
Source text: as §1, §2

[6] = test system: Pseudomonas aeruginosa (6 different isolates); settings: geometric mean of the MIC values from 6 different isolates of P. aeruginosa; Table 3B
Source text: as §3, §4
Geometric mean of MIC values was calculated to provide an overall view of antimicrobial activity of different analogs.

A. baumannii strain 759 = assay: MIC, microtiter dilution; assay type: cell-based, Acinetobacter baumannii; settings: source gluteus; Mueller-Hinton medium, 37 °C, 24 h, 5 × 10^5 CFU/mL; three sets of determinations
Source text: as §1, §2

A. baumannii strain 821 = assay: MIC, microtiter dilution; assay type: cell-based, Acinetobacter baumannii; settings: source urine; Mueller-Hinton medium, 37 °C, 24 h, 5 × 10^5 CFU/mL; three sets of determinations
Source text: as §1, §2

A. baumannii strain 649 = assay: MIC, microtiter dilution; assay type: cell-based, Acinetobacter baumannii; settings: source blood; Mueller-Hinton medium, 37 °C, 24 h, 5 × 10^5 CFU/mL; three sets of determinations
Source text: as §1, §2

A. baumannii strain 884 = assay: MIC, microtiter dilution; assay type: cell-based, Acinetobacter baumannii; settings: source axilla; Mueller-Hinton medium, 37 °C, 24 h, 5 × 10^5 CFU/mL; three sets of determinations
Source text: as §1, §2

[7] = test system: A. baumannii strain ATCC 19606; assay: MIC, microtiter dilution; assay type: cell-based, Acinetobacter baumannii; settings: source urine; Mueller-Hinton medium, 37 °C, 24 h, 5 × 10^5 CFU/mL; three sets of determinations
Source text: as §1, §2

human erythrocytes = assay: Hemolytic activity (HC50); assay type: cell-based; settings: for Hemolytic activity HC50: concentration giving 50% hemolysis after 18 h at 37 °C, 1% human erythrocytes in PBS pH 7.4, hemoglobin release at 570 nm, 100% control water (Figure 7)
Protocol: Hemoglobin release was determined spectrophotometrically at 570 nm.
From these plots, the HC50 values, the peptide concentration that produces 50% hemolysis of human red blood cells after 18 hours in the standard microtiter dilution method was determined.

Compound | MIC GM [1] [µM] | MIC CP204 [2] [µM] | MIC PAO1 [3] [µM] | MIC WR5 (P. aeruginosa strain WR5) [µM] | MIC PAK (P. aeruginosa strain PAK) [µM] | MIC PA14 [4] [µM] | MIC M2 (P. aeruginosa strain M2) [µM] | MIC 964 (A. baumannii strain 964) [µM] | MIC ATCC17978 [5] [µM] | MIC 689 (A. baumannii strain 689) [µM] | MIC 985 (A. baumannii strain 985) [µM] | MIC 899 (A. baumannii strain 899) [µM] | MIC 1012 (A. baumannii strain 1012) [µM] | MIC GM [6] [µM] | MIC 759 (A. baumannii strain 759) [µM] | MIC 821 (A. baumannii strain 821) [µM] | MIC 649 (A. baumannii strain 649) [µM] | MIC 884 (A. baumannii strain 884) [µM] | MIC ATCC19606 [7] [µM] | Hemolytic activity Fold improvement in HC50 (human erythrocytes) [fold] | further results
CSCC[C@@H](NC(=O)[C@@H](Cc1c[nH]c2ccccc12)NC(=O)[C@@H](CC(C)C)NC(=O)[C@@H](C)N)C(=O)N[C@@H](C(=O)N[C@H](CC(C)C)C(=O)N[C@H](CC(C)C)C(=O)N[C@H](CCCCN)C(=O)N[C@H](CCCCN)C(=O)N[C@@H](C(=O)N[C@H](CC(C)C)C(=O)N[C@H](CCCCN)C(=O)N[C@H](C)C(=O)N[C@H](C)C(=O)N[C@H](C)C(=O)N[C@H](CCCCN)C(=O)N[C@H](C)C(=O)N[C@H](CC(C)C)C(=O)N[C@H](CC(N)=O)C(=O)N[C@H](C)C(=O)N[C@@H](C(=O)N[C@H](CC(C)C)C(=O)N[C@@H](C(=O)NCC(=O)N[C@H](C)C(=O)N[C@H](CC(N)=O)C(=O)N[C@H](C)C(N)=O)C(C)C)C(C)C)C(C)C)[C@H](C)O [D-Dermaseptin S4] (H-[dA][dL][dW][dM][dT][dL][dL][dK][dK][dV][dL][dK][dA][dA][dA][dK][dA][dL][dN][dA][dV][dL][dV]G[dA][dN][dA]-NH2) | 1.8 (≈ 5 µg/mL) | 11.3 (≈ 31.4 µg/mL) | 11.3 (≈ 31.4 µg/mL) | 11.3 (≈ 31.4 µg/mL) | 11.3 (≈ 31.4 µg/mL) | 22.5 (≈ 62.5 µg/mL) | 11.3 (≈ 31.4 µg/mL) | 1.4 (≈ 3.89 µg/mL) | 2.8 (≈ 7.78 µg/mL) | 1.4 (≈ 3.89 µg/mL) | 0.7 (≈ 1.94 µg/mL) | 1.4 (≈ 3.89 µg/mL) | 2.8 (≈ 7.78 µg/mL) | 12.6 (≈ 35 µg/mL) | 1.4 (≈ 3.89 µg/mL) | 2.8 (≈ 7.78 µg/mL) | 1.4 (≈ 3.89 µg/mL) | 2.8 (≈ 7.78 µg/mL) | 2.8 (≈ 7.78 µg/mL) | 1.0 | Hemolytic activity HC50 (human erythrocytes): 0.6 µM
CC[C@@H](C)[C@@H](NC(=O)[C@@H](Cc1c[nH]cn1)NC(=O)[C@@H](Cc1c[nH]cn1)NC(=O)[C@@H](Cc1ccccc1)NC(=O)[C@H](N)Cc1ccccc1)C(=O)N[C@H](Cc1ccccc1)C(=O)N[C@H](CCCNC(=N)N)C(=O)NCC(=O)N[C@H](CCCCN)C(=O)N[C@@H](C(=O)N[C@H](Cc1c[nH]cn1)C(=O)N[C@@H](C(=O)NCC(=O)N[C@H](CCCCN)C(=O)N[C@@H](C(=O)N[C@@H](C(=O)N[C@H](Cc1c[nH]cn1)C(=O)N[C@H](CCCNC(=N)N)C(=O)N[C@H](CC(C)C)C(=O)N[C@@H](C(=O)N[C@@H](C(=O)NCC(N)=O)[C@H](C)O)C(C)C)[C@H](C)CC)[C@H](C)O)C(C)C)C(C)C [D-Piscidin 1 I9K] (H-[dF][dF][dH][dH][dI][dF][dR]G[dK][dV][dH][dV]G[dK][dT][dI][dH][dR][dL][dV][dT]G-NH2) | 3.0 (≈ 7.76 µg/mL) | 48.3 (≈ 125 µg/mL) | 48.3 (≈ 125 µg/mL) | 24.2 (≈ 62.6 µg/mL) | 12.1 (≈ 31.3 µg/mL) | 24.2 (≈ 62.6 µg/mL) | 48.3 (≈ 125 µg/mL) | 3.0 (≈ 7.76 µg/mL) | 3.0 (≈ 7.76 µg/mL) | 3.0 (≈ 7.76 µg/mL) | 3.0 (≈ 7.76 µg/mL) | 3.0 (≈ 7.76 µg/mL) | 6.0 (≈ 15.5 µg/mL) | 30.5 (≈ 78.9 µg/mL) | 3.0 (≈ 7.76 µg/mL) | 3.0 (≈ 7.76 µg/mL) | 3.0 (≈ 7.76 µg/mL) | 3.0 (≈ 7.76 µg/mL) | 1.5 (≈ 3.88 µg/mL) | 54 | Hemolytic activity HC50, 18 hours (Figure 8 comparison) (human erythrocytes; 18 hours at 37 °C, human red blood cells, Figure 8, 100% control 0.1% Triton-X 100): 115 µM; Hemolytic activity HC50 (human erythrocytes): 98 µM
